Assay results as given in patent US12285403B2, “A2-73 as a therapeutic for insomnia, anxiety and agitation” (Anavex Life Sciences Corp., priority 2016, dated 2025).

Assays:
[1] = test system: insomnia, anxiety or agitation; experiment: Single-patient therapy Examples 1-10 (insomnia, anxiety, agitation); type: in vivo, human
Experimental: A person presents as suffering from maintenance insomnia for one year. They are started on oral A2-73 at 10 mg/day. […] They are currently maintained on 10 mg of A2-73 and is sleeping well. A person presents with anxiety of three years' duration. They are administered A2-73 at 20 mg oral per day every other day. […] They are maintained on this dosing schedule for 60 days. […] They are treated with 30 mg A2-73 oral daily for 30 days. […] They are currently maintained at that dosage and is not anxious. A person presents with MCI and reports maintenance insomnia for one year. They are started on oral A1-41 at 10 mg/day. […] They are currently maintained on 10 mg of A1-41 and is sleeping well. The patient is a person with diagnosed AD and reported anxiety of three years' duration. They are administered A19-144 at 20 mg oral per day every day for 90 days. […] They are chronically maintained on this dosing schedule. A person diagnosed with mild cognitive impairment presents as suffering from maintenance insomnia for one year. They are started on oral A2-73 at 50 mg/day. […] They are currently maintained on 50 mg of A2-73 daily and is sleeping well. A person diagnosed with Alzheimer's disease presents with insomnia/WASO and agitation and a systolic blood pressure of 145 mm Hg. They are started on oral A2-73 at 30 mg/day. […] They are also less agitated. Their results on all cognitive tests and HAM-D improve. They are currently maintained on 30 mg of A2-73 daily. A person diagnosed with Alzheimer's disease presents with insomnia/WASO and agitation. They are started on oral A2-73 at 100 mg/day. […] They are also less agitated. Their results on all cognitive tests and HAM-D improve. They are currently maintained on 100 mg of A2-73 every other day. A person diagnosed with Alzheimer's disease presents with insomnia/WASO and agitation. They are started on oral A19-144 at 50 mg/day. […] They are also less agitated. Their results on all cognitive tests and HAM-D improve. They are currently maintained on 50 mg of A19-144 daily. A person diagnosed with Alzheimer's disease presents with insomnia/WASO and agitation. They are started on oral A1-41 at 30 mg/day. […] They are also less agitated. Their results on all cognitive tests and HAM-D improve. They are currently maintained on 30 mg of A1-41 daily.

[2] = test system: muscarinic acetylcholine receptors; conditions: 'is believed to bind'; cited from earlier work
sigma-1 receptors = sigma-1 receptors (Homo sapiens, UniProt Q99720); conditions: 'is believed to bind'; cited from earlier work
[3] = Example 10: oral 30 mg/day, 60 days
[4] = Example 9: oral 50 mg/day, 30 days

Sequence of sigma-1 receptors (Q99720 whole entry): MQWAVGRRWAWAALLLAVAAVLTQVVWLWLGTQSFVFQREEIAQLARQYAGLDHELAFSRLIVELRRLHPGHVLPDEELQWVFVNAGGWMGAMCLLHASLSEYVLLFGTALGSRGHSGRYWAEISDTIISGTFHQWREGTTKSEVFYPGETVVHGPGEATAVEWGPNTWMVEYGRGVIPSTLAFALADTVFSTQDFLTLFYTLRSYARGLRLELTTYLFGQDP

CN(C)CC1COC(c2ccccc2)(c2ccccc2)C1.Cl (stereo not shown) [A1-41, tetrahydro-N,N-dimethyl-5,5-diphenyl-3-furanmethanamine hydrochloride]
Sleep at follow up (maintenance insomnia) ([1]; Example 4: person with MCI, oral 10 mg/day, 30 days): sleeping well | Agitation at follow up [1, 3]: less agitated | Results on all cognitive tests and HAM-D [1, 3]: improve | Sleep at follow up (insomnia/WASO) ([1]; Example 10: person with AD, oral 30 mg/day, 60 days): sleeping well through the night

CNCC1CCOC1(c1ccccc1)c1ccccc1.Cl (stereo not shown) [A19-144, 1-(2,2-diphenyltetrahydrofuran-3-yl)-N-methylmethanamine hydrochloride]
Anxiety ([1]; Example 5: person with AD, 20 mg oral every day, after two days of dosing): Resolution of the anxiety | Agitation at follow up [1, 4]: less agitated | Results on all cognitive tests and HAM-D [1, 4]: improve | Sleep at follow up (insomnia/WASO) ([1]; Example 9: person with AD, oral 50 mg/day, 30 days): sleeping well through the night | Affinity for muscarinic acetylcholine receptors [2]: low micromolar range | Affinity for sigma-1 receptors (sigma-1 receptors): low micromolar range
